In patent US12577532B2, “Xeno-free and transgene-free reprograming of mesenchymal stem cells toward neural progenitor cells” (UNIVERSITY OF CENTRAL FLORIDA RESEARCH FOUNDATION, INC., priority 2019, dated 2026):

Key:
iNSC-MSC = assay: Differentiation potential of iNSC-MSC under serum free conditions (immunofluorescence); type: cell-based; details: methods using decitabine (method 2 & 4) versus methods without
Text: The resultant cells of the four methods express neural differentiation markers Bill, GFAP and NeuN, especially in the surrounded areas of the spheres. On the other hand, they keep NSC markers Sox2, Sox1 and CD90 on the spheres. […] All nuclei were counterstained with DAPI. Scale bar, 50 μm.

MSC = assay: Reprogramming of MSCs toward neural progenitor spheres (neurosphere production); type: cell-based
Experimental: MSC media contains DMEM F:12, 10% KSR, 5% Glutamax, 5% NNEA, 1% Penicillin/streptomycin. We used 12 well treated plates for production.
MSCs are seeded in culture media and allowed to grow up under serum-free conditions until 80% confluence on adherent conditions using laminin as coat.
At stage 1, fresh media and NSC exosomes (and in two methodologies also we used pluripotent cells to enhance de-differentiation) as a source of linage specific signals, are provided to the cultured MSCs (typically following decitabine treatment), and exposed to NSC exosomes for 1-5 days. Following stage 1, (typically at day 5) stage 2 involves switching out media and NSC exosomes and exposing the cells to the fresh media and NSC exosomes for 5-15 days. After stage 2, (typically at day 15 from the start of stage 1) stage 3 involves switching out media and NSC exosomes with fresh media lacking NSC exosomes and allowing the cells to grow for 5-7 days. After stage 3, (typically at day 20-22 from the start of stage 1), neural progenitor spheres (the primary colonies) are isolated from the culture. After isolation occurs, the neurospheres are picked to keep on suspension for expansion and experimentation. […]

With `Nc1ncn([C@H]2C[C@H](O)[C@@H](CO)O2)c(=O)n1` [decitabine, 5-aza-2′-deoxycytidine] the “immunofluorescence intensities for BII tubulin” value (iNSC-MSC) was “significant less iimmunofluorescence intensities”, the “number of primary neurospheres produced” value (MSC; MSC cultured with NSC exosomes, day 21 of production (FIG. 2B)) was “enhances the number of spheres produced” and the spheres produced (MSC; MSC treated without NSC exosomes) was “no spheres were found produced”.
